Assays:
[1] = tested on: castrated male rats (levator ani, seminal vesicules, prostate); assay: Anabolisant-androgenic activity, Hershberger technique slightly modified (castrated rats, oral); type: in vivo, rat; details: for Levator ani weight / Prostate weight / Seminal vesicules weight: oral, 10 days
Description: This test was effected using the technique of Hershberger [Proc. Soc. Exp. Biol. Med., Vol. 83 (1953), p. 175] slightly modified and groups of 5 male rats 19 to 21 days old were castrated and then were treated daily for 10 days by oral administration of the test product in a solution containing 0.5 ml of olive oil and 0.5 ml of water containing 0.25% of carboxymethylcellulose. The animals were killed 24 hours after the last treatment and the prostate and seminal vesicules were removed and fixed for 24 hours in a solution of 10% formol in physiological serum. They were then dissected and weighed and the levator ani was removed and weighed in a fresh state. The increase in the weight of the genital organs indicate the anabolisant-androgenic activity of 17β-n-amyloxy-Δ^4,9,11 -estratriene-3-one and the results are reported in Table I and compared to the results of other trienic steroids.

hepatic cells = assay: Hepatonocivity study (rabbit, oral, 4 consecutive days); type: in vivo
Description: 17β-n-amyloxy-Δ^4,9,11 -estratriene-3-one was orally administered for 4 consecutive days to a rabbit at a dose of 10 mg/kg and the animal was killed on the 5th day. […] (BSP).

[2] = 10 mg/kg orally, 4 consecutive days

## C=C(C)CO[C@H]1CC[C@H]2[C@@H]3CCC4=CC(=O)CCC4=C3C=C[C@]12C [17β-(2'-methyl)allyloxy-Δ^4,9,11 estratriene 3-one]
[1]; daily dose 20 μg/rat
  Levator ani weight: 29.0 mg
  Prostate weight: 34.1 mg
  Seminal vesicules weight: 17.0 mg
[1]; daily dose 100 μg/rat
  Levator ani weight: 23.5 mg
  Prostate weight: 39.0 mg
  Seminal vesicules weight: 16.7 mg
[1]; daily dose 500 μg/rat
  Levator ani weight: 37.5 mg
  Prostate weight: 66.2 mg
  Seminal vesicules weight: 52.3 mg

## CC(C)=CCO[C@H]1CC[C@H]2[C@@H]3CCC4=CC(=O)CCC4=C3C=C[C@]12C [17β-(3'-methyl)but-2'-enyloxy Δ^4,9,11-estratriene-3-one]
[1]; daily dose 10 μg/rat
  Levator ani weight: 28.7 mg
  Prostate weight: 12.8 mg
  Seminal vesicules weight: 8.2 mg
[1]; daily dose 100 μg/rat
  Levator ani weight: 49.2 mg
  Prostate weight: 39.0 mg
  Seminal vesicules weight: 36.7 mg

## C[C@]12C=CC3=C4CCC(=O)C=C4CC[C@H]3[C@@H]1CC[C@@H]2OCC1CC1 [17β-(cyclopropyl)-methoxy-Δ^4,9,11-estratriene-3-one]
[1]; daily dose 10 μg/rat
  Levator ani weight: 20.7 mg
  Prostate weight: 18.4 mg
  Seminal vesicules weight: 9.9 mg
[1]; daily dose 100 μg/rat
  Levator ani weight: 33.3 mg
  Prostate weight: 41.7 mg
  Seminal vesicules weight: 26.4 mg
[1]; daily dose 1000 μg/rat
  Levator ani weight: 49.2 mg
  Prostate weight: 88.7 mg
  Seminal vesicules weight: 97.1 mg

## CC(C)CO[C@H]1CC[C@H]2[C@@H]3CCC4=CC(=O)CCC4=C3C=C[C@]12C [17β-isobutyloxy-Δ^4,9,11-estratriene-3-one]
[1]; daily dose 10 μg/rat
  Levator ani weight: 24.6 mg
  Prostate weight: 13.5 mg
  Seminal vesicules weight: 9.2 mg
[1]; daily dose 100 μg/rat
  Levator ani weight: 41.9 mg
  Prostate weight: 46.4 mg
  Seminal vesicules weight: 28.7 mg
[1]; daily dose 1000 μg/rat
  Levator ani weight: 44.0 mg
  Prostate weight: 104.8 mg
  Seminal vesicules weight: 116.0 mg

## CCCCCO[C@H]1CC[C@H]2[C@@H]3CCC4=CC(=O)CCC4=C3C=C[C@]12C [17β-n-amyloxy-Δ^4,9,11-estratriene-3-one]
[1]; administered orally, rats
  anabolisant-androgenic activity compared to other Δ^4,9,11 -estratrienes: clearly much superior
[1]; daily dose 10 μg/rat
  Levator ani weight: 28.4 mg
  Prostate weight: 27.7 mg
  Seminal vesicules weight: 13.1 mg
[1]; daily dose 30 μg/rat
  Levator ani weight: 47.1 mg
  Prostate weight: 44.7 mg
  Seminal vesicules weight: 23.5 mg
[1]; daily dose 90 μg/rat
  Levator ani weight: 53.1 mg
  Prostate weight: 79.0 mg
  Seminal vesicules weight: 64.0 mg
Hepatic cells; 5 mg/kg
  tolerance by the hepatic cells: well tolerated
Hepatic cells; [2]
  rate of oxalacetic transaminase (SGOT): increase
  rate of retention of bromosulfonephtalein (BSP): without having caused a change

## CCCO[C@H]1CC[C@H]2[C@@H]3CCC4=CC(=O)CCC4=C3C=C[C@]12C [17β-n-propyloxy-Δ^4,9,11-estratriene 3-one]
[1]; daily dose 100 μg/rat
  Levator ani weight: 25.3 mg
  Prostate weight: 33.5 mg
  Seminal vesicules weight: 14.9 mg
[1]; daily dose 1000 μg/rat
  Levator ani weight: 38.7 mg
  Prostate weight: 74.4 mg
  Seminal vesicules weight: 66.8 mg

From patent US4105761A, “Anabolisant-androgenic compounds” (Roussel Uclaf, priority 1974, dated 1978)
